Experimental data reported in patent US20210236512A1 (ZARODEX THERAPEUTICS LIMITED, priority 2018, published 2021).

Columns and labels:
[1] = test system: total peripheral blood B-cells isolated from healthy donors; type: cell-based, human; conditions: clozapine 25-350 ng/ml, norclozapine 15-200 ng/ml, haloperidol 2-25 ng/ml; for Ability of differentiated ASCs to secrete antibody (total IgM/IgG ELISA): day 6 and day 9
Procedure: The experiment was performed from four independent donors.

[2] = in vivo; cited from earlier work
[3] = test system: B cell subsets and T cells in spleen; assay: Wild type mouse study: spleen immunophenotyping by flow cytometry; conditions: haloperidol 1 mg/kg
[4] = test system: B cell subsets in bone marrow; assay: Wild type mouse study: bone marrow B cell immunophenotyping by flow cytometry; conditions: haloperidol 1 mg/kg IP, 21 days

SMILES: O=C(CCCN1CCC(O)(c2ccc(Cl)cc2)CC1)c1ccc(F)cc1 [Haloperidol, haloperidol]
- Functional or phenotypic maturation of activated B cells to an early PC state [1]: no consistent inhibitory effect
- Ability of differentiated ASCs to secrete antibody (total IgM/IgG ELISA) [1]: no consistent effect
- LD50 [2]: 30 mg/kg
- Reduction of activated T cells (B220+TCR-b+) in spleen [3]: modestly apparent
- Impact on B cell subpopulations ([3]; comparator): not observed
- Early developing B cell subsets in bone marrow (overall B, pre-pro B, pro-B) [4]: no significant effect
- Effect on long-lived plasma cells in the bone marrow [4]: no effect

SMILES: Clc1ccc2c(c1)N=C(N1CCNCC1)c1ccccc1N2 [norclozapine]
- Functional or phenotypic maturation of activated B cells to an early PC state [1]: no consistent inhibitory effect
- Ability of differentiated ASCs to secrete antibody (total IgM/IgG ELISA) [1]: no consistent effect
